This note sets out measurements from ChEMBL document CHEMBL1629669, “Two clinical strains of Klebsiella pneumoniae carrying plasmid-borne blaIMP-4, blaSHV-12, and armA isolated at a Pediatric Center in Shanghai, China” (2009).

Common to all, as to format: functional
The subject of assay [1] is Klebsiella pneumoniae. The experiment in a line: Antimicrobial activity against multidrug resistant Klebsiella pneumoniae isolate KpSCMC1 harboring int1, bla IMP-4, bla SHV-12, armA and sul1 gene isolated from patient with pulmonary infection by disk diffusion method.
The test system of assay [2] is Klebsiella pneumoniae. The experiment in a line: Antimicrobial activity against multidrug resistant Klebsiella pneumoniae isolate KpSCMC2 harboring int1, bla IMP-4, bla SHV-12, armA and sul1 gene isolated from patient with pulmonary infection by disk diffusion method. A general note: In agar diffusion tests the substance spreads into inoculated agar from a disc or well.

Assay [3] has as its system Klebsiella pneumoniae. The experiment in a line: Antimicrobial activity against carbapenem susceptible Klebsiella pneumoniae isolate KpSCMC2c harboring bla SHV-12 gene isolated from patient with pulmonary infection by disk diffusion method.
Assay [4] concerns Klebsiella pneumoniae. The experiment in a line: Antimicrobial activity against multidrug resistant Klebsiella pneumoniae isolate KpSCMC1 harboring int1, bla IMP-4, bla SHV-12, armA and sul1 gene isolated from patient with pulmonary infection by Etest method.
The subject of assay [5] is Klebsiella pneumoniae. The experiment in a line: Antimicrobial activity against multidrug resistant Klebsiella pneumoniae isolate KpSCMC2 harboring int1, bla IMP-4, bla SHV-12, armA and sul1 gene isolated from patient with pulmonary infection by Etest method.
In assay [6] the test system is Klebsiella pneumoniae. The experiment in a line: Antimicrobial activity against carbapenem susceptible Klebsiella pneumoniae isolate KpSCMC2c harboring bla SHV-12 gene isolated from patient with pulmonary infection by Etest method.

Converted amounts (≈) assume the structure as drawn.

In general, MIC refers to the lowest concentration that inhibits growth of the organism. Read a low MIC as a more susceptible organism. Turning to `C[C@@H](O)[C@H]1C(=O)N2C(C(=O)O)=C(S[C@@H]3CN[C@H](C(=O)N(C)C)C3)[C@H](C)[C@H]12` [MEROPENEM], the entries for the “inhibition zone (IZ)” value in the assay with Klebsiella pneumoniae [1], in the assay with Klebsiella pneumoniae [2] and in the assay on Klebsiella pneumoniae [3] were 14 mm, 13 mm and 27 mm, respectively. Also, the MIC was found to be 8 µg/mL (≈ 20.9 µM) against Klebsiella pneumoniae [4], 4 µg/mL (≈ 10.4 µM) against Klebsiella pneumoniae [5] and 0.25 µg/mL (≈ 0.652 µM) against Klebsiella pneumoniae [6].

As to `C[C@@H](O)[C@H]1C(=O)N2C(C(=O)O)=C(SCCNC=N)C[C@H]12` [IMIPENEM ANHYDROUS], the “inhibition zone (IZ)” value with Klebsiella pneumoniae [1] was determined as 21 mm; in the assay with Klebsiella pneumoniae [2], 20 mm; in the assay on Klebsiella pneumoniae [3], 26 mm. For the same compound, the MIC was found to be 3 µg/mL (≈ 10 µM) with Klebsiella pneumoniae [4], 2 µg/mL (≈ 6.68 µM) with Klebsiella pneumoniae [5] and 0.064 µg/mL (≈ 0.214 µM) in the assay on Klebsiella pneumoniae [6].
